Test results as given in the supplement of paper PMC10307832.

Tests used:
Assay in all cases: relative viability (nuclei count vs DMSO), 5 days (fraction); higher = more cells survive
NCI-H1944 = test system: NCI-H1944
Outline: (§1)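 Each reported value is a median over duplicate plates. It expresses relative viability: treated-well nuclei count divided by vehicle-well nuclei count. Lung cancer cell lines in 1536-well plates were dosed by pin tool a day after seeding, alone with one drug or with a fixed anchor-drug dose plus five library-drug doses (not always all listed) in √10 steps, and nuclei were counted after 5 days.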

A-427 = test system: A-427
Outline: as §1

NCI-H2228 = test system: NCI-H2228
Outline: as §1

LXF-289 = test system: LXF-289
Outline: as §1

NCI-H596 = test system: NCI-H596
Outline: as §1

SW 900 = test system: SW 900
Outline: as §1

EMC-BAC-2 = test system: EMC-BAC-2
Outline: as §1

SW 1573 = test system: SW 1573
Outline: as §1

NCI-H1792 = test system: NCI-H1792
Outline: as §1

NCI-H2170 = test system: NCI-H2170
Outline: as §1

NCI-H3122 = test system: NCI-H3122
Outline: as §1

HARA = test system: HARA
Outline: as §1

PC-3 [JPC-3] = test system: PC-3 [JPC-3]
Outline: as §1

LK-2 = test system: LK-2
Outline: as §1

NCI-H1993 = test system: NCI-H1993
Outline: as §1

NCI-H1793 = test system: NCI-H1793
Outline: as §1

LU99A = test system: LU99A
Outline: as §1

NCI-H2009 = test system: NCI-H2009
Outline: as §1

SK-LU-1 = test system: SK-LU-1
Outline: as §1

SK-MES-1 = test system: SK-MES-1
Outline: as §1

COR-L23 = test system: COR-L23
Outline: as §1

HOP-62 = test system: HOP-62
Outline: as §1

## Clc1ccc(Nc2nnc(Cc3ccncc3)c3ccccc23)cc1 [Vatalanib] + Nc1nc2[nH]cc(CCc3ccc(C(=O)N[C@@H](CCC(=O)O)C(=O)O)cc3)c2c(=O)[nH]1 [Pemetrexed] (partner 0.2 µM)
NCI-H1944; first compound 0.04 µM
  relative viability: 0.544
NCI-H1944; first compound 0.1265 µM
  relative viability: 0.669
NCI-H1944; first compound 0.4 µM
  relative viability: 0.63
NCI-H1944; first compound 1.265 µM
  relative viability: 0.583
NCI-H1944; first compound 4 µM
  relative viability: 0.558
A-427; first compound 0.04 µM
  relative viability: 0.98
A-427; first compound 0.1265 µM
  relative viability: 0.957
A-427; first compound 0.4 µM
  relative viability: 0.993
A-427; first compound 4 µM
  relative viability: 0.947
NCI-H2228; first compound 0.04 µM
  relative viability: 0.352
NCI-H2228; first compound 0.1265 µM
  relative viability: 0.304
NCI-H2228; first compound 0.4 µM
  relative viability: 0.314
NCI-H2228; first compound 1.265 µM
  relative viability: 0.376
NCI-H2228; first compound 4 µM
  relative viability: 0.374
LXF-289; first compound 0.04 µM
  relative viability: 0.887
LXF-289; first compound 0.1265 µM
  relative viability: 0.879
LXF-289; first compound 0.4 µM
  relative viability: 0.955
LXF-289; first compound 1.265 µM
  relative viability: 0.908
LXF-289; first compound 4 µM
  relative viability: 0.822
NCI-H596; first compound 0.04 µM
  relative viability: 0.482
NCI-H596; first compound 0.1265 µM
  relative viability: 0.488
NCI-H596; first compound 0.4 µM
  relative viability: 0.524
NCI-H596; first compound 1.265 µM
  relative viability: 0.514
NCI-H596; first compound 4 µM
  relative viability: 0.47
SW 900; first compound 0.04 µM
  relative viability: 0.476
SW 900; first compound 0.1265 µM
  relative viability: 0.471
SW 900; first compound 0.4 µM
  relative viability: 0.467
SW 900; first compound 1.265 µM
  relative viability: 0.478
SW 900; first compound 4 µM
  relative viability: 0.464
EMC-BAC-2; first compound 0.04 µM
  relative viability: 0.452
EMC-BAC-2; first compound 0.1265 µM
  relative viability: 0.427
EMC-BAC-2; first compound 0.4 µM
  relative viability: 0.456
EMC-BAC-2; first compound 4 µM
  relative viability: 0.463
SW 1573; first compound 0.1265 µM
  relative viability: 0.72
SW 1573; first compound 0.4 µM
  relative viability: 0.975
SW 1573; first compound 1.265 µM
  relative viability: 0.771
SW 1573; first compound 4 µM
  relative viability: 0.794
NCI-H1792; first compound 0.04 µM
  relative viability: 0.902
NCI-H1792; first compound 0.1265 µM
  relative viability: 0.781
NCI-H1792; first compound 0.4 µM
  relative viability: 0.771
NCI-H1792; first compound 1.265 µM
  relative viability: 0.817
NCI-H1792; first compound 4 µM
  relative viability: 0.699
NCI-H2170; first compound 0.04 µM
  relative viability: 0.328
NCI-H2170; first compound 0.1265 µM
  relative viability: 0.289
NCI-H2170; first compound 0.4 µM
  relative viability: 0.273
NCI-H2170; first compound 1.265 µM
  relative viability: 0.292
NCI-H2170; first compound 4 µM
  relative viability: 0.261
NCI-H3122; first compound 0.04 µM
  relative viability: 0.195
NCI-H3122; first compound 0.1265 µM
  relative viability: 0.19
NCI-H3122; first compound 0.4 µM
  relative viability: 0.191
NCI-H3122; first compound 1.265 µM
  relative viability: 0.199
NCI-H3122; first compound 4 µM
  relative viability: 0.189
HARA; first compound 0.04 µM
  relative viability: 0.225
HARA; first compound 0.1265 µM
  relative viability: 0.265
HARA; first compound 0.4 µM
  relative viability: 0.252
HARA; first compound 1.265 µM
  relative viability: 0.232
HARA; first compound 4 µM
  relative viability: 0.256
PC-3 [JPC-3]; first compound 0.04 µM
  relative viability: 1.02
PC-3 [JPC-3]; first compound 0.1265 µM
  relative viability: 0.943
PC-3 [JPC-3]; first compound 0.4 µM
  relative viability: 0.803
PC-3 [JPC-3]; first compound 1.265 µM
  relative viability: 0.456
PC-3 [JPC-3]; first compound 4 µM
  relative viability: 0.964
LK-2; first compound 0.04 µM
  relative viability: 0.241
LK-2; first compound 0.1265 µM
  relative viability: 0.252
LK-2; first compound 0.4 µM
  relative viability: 0.319
LK-2; first compound 1.265 µM
  relative viability: 0.235
LK-2; first compound 4 µM
  relative viability: 0.207
NCI-H1993; first compound 0.04 µM
  relative viability: 0.581
NCI-H1993; first compound 0.1265 µM
  relative viability: 0.644
NCI-H1993; first compound 0.4 µM
  relative viability: 0.619
NCI-H1993; first compound 1.265 µM
  relative viability: 0.501
NCI-H1993; first compound 4 µM
  relative viability: 0.619
NCI-H1793; first compound 0.04 µM
  relative viability: 0.789
NCI-H1793; first compound 0.1265 µM
  relative viability: 0.817
NCI-H1793; first compound 0.4 µM
  relative viability: 1.06
NCI-H1793; first compound 1.265 µM
  relative viability: 0.747
NCI-H1793; first compound 4 µM
  relative viability: 0.714
LU99A; first compound 0.04 µM
  relative viability: 0.182
LU99A; first compound 0.1265 µM
  relative viability: 0.162
LU99A; first compound 0.4 µM
  relative viability: 0.17
LU99A; first compound 1.265 µM
  relative viability: 0.189
LU99A; first compound 4 µM
  relative viability: 0.162
NCI-H2009; first compound 0.04 µM
  relative viability: 0.975
NCI-H2009; first compound 0.1265 µM
  relative viability: 0.971
NCI-H2009; first compound 0.4 µM
  relative viability: 1.09
NCI-H2009; first compound 1.265 µM
  relative viability: 1.01
NCI-H2009; first compound 4 µM
  relative viability: 0.974
SK-LU-1; first compound 0.04 µM
  relative viability: 0.966
SK-LU-1; first compound 0.1265 µM
  relative viability: 0.881
SK-LU-1; first compound 0.4 µM
  relative viability: 1.14
SK-LU-1; first compound 1.265 µM
  relative viability: 0.901
SK-LU-1; first compound 4 µM
  relative viability: 0.928
SK-MES-1; first compound 0.04 µM
  relative viability: 0.905
SK-MES-1; first compound 0.1265 µM
  relative viability: 0.925
SK-MES-1; first compound 0.4 µM
  relative viability: 1.05
SK-MES-1; first compound 1.265 µM
  relative viability: 0.912
SK-MES-1; first compound 4 µM
  relative viability: 0.787
COR-L23; first compound 0.04 µM
  relative viability: 0.204
COR-L23; first compound 0.1265 µM
  relative viability: 0.194
COR-L23; first compound 0.4 µM
  relative viability: 0.212
COR-L23; first compound 1.265 µM
  relative viability: 0.201
COR-L23; first compound 4 µM
  relative viability: 0.208
HOP-62; first compound 0.04 µM
  relative viability: 0.273
HOP-62; first compound 0.1265 µM
  relative viability: 0.336
HOP-62; first compound 0.4 µM
  relative viability: 0.277
HOP-62; first compound 1.265 µM
  relative viability: 0.275
HOP-62; first compound 4 µM
  relative viability: 0.349
